From patent publication US4832875A, “Vitamin D3 derivative” (Taisho Pharmaceutical Co., Ltd., priority 1985, dated 1989)
pIC50: −log10 of the molar value.

Key:
[1] = test system: calcium level in serum in vitamin D-deficient rats; assay: activity of increasing calcium level in serum in vitamin D-deficient rats (oral); assay type: in vivo, Wistar rats (male); conditions: for Percent increase in serum Ca level (control 100%) / Calcium in the serum: po, once a day over 3 days; for Calcium in the serum: control (ethanol) 8.60
Excerpt: To confirm it in an in vivo (animal) test, however, its action of increasing the blood calcium level in vitamin D-deficient rats was examined.
Wistar rats (male, three weeks old) purchased from Japan Charles River Co. were fed 3 to 4 weeks with a vitamin D-deficient diet containing calcium (0.02%) and phosphorus (0.99%) to prepare vitamin D-deficient rats. The compound of this invention or 1,25-dihydroxy-26,27-dimethylvitamin D3 was orally administered to these animals once a day over 3 days. On the fourth day, blood was drawn from the animals, and calcium in the serum was measured by atomic absorptiometry.
As soon as the administration began, the feed was changed to one which was vitamin D-deficient but contained calcium in a normal amount (0.56%).

[2] = test system: calcium level in the serum; conditions: as shown in Japanese Laid-Open Patent Publication No. 44860/1986; cited from earlier work
[3] = test system: calcium level in the serum in vitamin D-deficient low-calcium rats; assay: effect of inhibiting dissolution of calcium from bones: calcium level in serum in vitamin D-deficient low-calcium rats (intravenous); assay type: in vivo, Wistar rats (male); conditions: 500 P moles/100 g body weight, one intravenous administration, next day
Excerpt: Vitamin D has both an action of calcium deposition on bones and an action of liberating calcium from the bones, and promotes bone formation when the balance between these actions is shifted toward the former. Accordingly, a vitamin D derivative which inhibits dissolution of calcium from bones can be expected to have a very strong bone-forming action. In the present test, calcium in the feed was limited to a low level, and under conditions in which no calcium absorption from the intestinal tract occurred, the activity to increase the calcium level in the serum was examined. This activity is considered to reflect calcium dissolution from the bones.
The following test was conducted in accordance with the method of C. Kaneko et al. [C. Kaneko, S. Yamada, A. Sugimoto, M. Katuta, and S. Sasaki: Steroids, 23, 75 (1974)].
Three week old Wistar rats (male) were purchased from Japan Charles River Co., and were fed for 19 days with a feed being deficient in vitamin D and containing low calcium (0.02%) to prepare vitamin D-deficient hypocalcemia rats. An ethanol solution of an assay compound was intravenously administered once to the rats. On the next day, blood was drawn from the animals, and the calcium level in the serum was measured by atomic absorptiometry (using a double beam atomic absorption photometer made by Shimazu Seisakusho; Model AA-650).

[4] = biological target: T1, 1,25-dihydroxyvitamin D3 receptor in the intestines of chicken embryo (Gallus gallus, UniProt O42392); assay: receptor binding ability (in vitro), 1,25-dihydroxyvitamin D3 receptor, charcoal method
T1 sequence (O42392 1-451): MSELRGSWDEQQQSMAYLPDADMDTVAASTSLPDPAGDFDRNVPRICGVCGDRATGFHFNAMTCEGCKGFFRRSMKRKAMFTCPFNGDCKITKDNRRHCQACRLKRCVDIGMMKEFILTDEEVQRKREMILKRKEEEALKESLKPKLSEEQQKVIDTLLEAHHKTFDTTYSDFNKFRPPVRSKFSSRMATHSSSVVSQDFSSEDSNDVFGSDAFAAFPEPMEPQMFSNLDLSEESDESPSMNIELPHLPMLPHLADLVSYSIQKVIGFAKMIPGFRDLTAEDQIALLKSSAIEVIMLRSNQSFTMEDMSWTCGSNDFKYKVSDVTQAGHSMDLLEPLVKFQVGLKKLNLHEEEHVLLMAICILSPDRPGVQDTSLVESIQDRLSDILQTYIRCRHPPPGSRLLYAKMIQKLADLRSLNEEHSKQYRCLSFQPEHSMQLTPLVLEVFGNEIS
Procedure: The mixture was incubated at 0° C. for 3 hours.
The free assay compound and the assay compound bound to the receptor were separated by the charcoal method.

Row | pIC50 [4] | Structure (SMILES) | Percent increase in serum Ca level (control 100%) ([1]; 600 P moles/rat) [%] | Calcium in the serum ([1]; 600 P moles/rat) [mg/dL] | Percent increase in serum Ca level (control 100%) ([1]; 1,200 P moles/rat) [%] | Calcium in the serum ([1]; 1,200 P moles/rat) [mg/dL] | action of increasing the calcium level in the serum compared with 1α-hydroxyvitamin D3 or 1,25-dihydroxyvitamin D3 (in words) [2] | activity to increase the calcium level in the serum compared with 1,25-dihydroxyvitamin D3 (in words) ([1]; inferred via 1,25-dihydroxy-26,27-dimethylvitamin D3 comparator) | action of increasing the calcium level in the serum (in words) ([1]; vitamin D-deficient rats, oral) | Percent increase in serum Ca level (control 100%) ([3]; control 100%) [%] | Calcium in the serum ([3]; control (ethanol) 4.47, * significant at P <0.05 vs control) [mg/dL]
1 |  | C=C1/C(=C\C=C2/CCC[C@]3(C)[C@@H]([C@H](C)CCCC(O)(CC)CC)CC[C@@H]23)C[C@@H](O)C[C@@H]1O [1,25-Dihydroxy-26,27-dimethyl-vitamin D3, 1,25-dihydroxy-26,27-dimethylvitamin D3, reference compound] | 105 | 9.00 | 112 | 9.60 | stronger action of increasing the calcium level in the serum than 1α-hydroxyvitamin D3 or 1,25-dihydroxyvitamin D3 |  |  |  | 
2 | 7.30 | C=C1/C(=C\C=C2/CCC[C@]3(C)[C@@H]([C@H](C)CCCC(F)(F)C(C)(C)O)CC[C@@H]23)C[C@@H](O)C[C@@H]1O [Compound of the invention, 1α,25-dihydroxy-24a,24a-difluoro-24-homovitamin D3] | 114 | 9.80 | 119 | 10.20 |  | stronger than that of 1,25-dihydroxyvitamin D3 | shows an action of increasing the calcium level in the serum | 94.2 | 4.21
